Measured values: US10492491B2, “Insecticide composition including a synergistic agent” (priority 2015, dated 2019)
Like-named read-outs stand apart in the source and are kept apart here.

What was measured:
Type in all cases: cell-based, Periplaneta americana
[1] = test system: cockroach Dorsal Unpaired Median (DUM) neurons; settings: for origin of the intracellular calcium concentration rise: with caffeine, omegaconotoxin, pirenzepine
[2] = test system: cockroach Dorsal Unpaired Median (DUM) neurons; experiment: Whole-cell patch-clamp, current-clamp: DUM neuron spontaneous electrical activity; settings: IR3535 at 10^-8 M; whole-cell configuration
Method: (§1) Experiments were carried out on cockroach Dorsal Unpaired Median (DUM) neurons. Cockroach neuronal preparations are commonly used as biomedical models for vertebrates and invertebrates and DUM neurons are, furthermore, electrophysiologically and pharmacologically well characterized since most of the biophysical and pharmacological properties of ionic currents and receptors underlying and modulating their spontaneous action potentials have been established by using the well-known patch-clamp technique.
Adult male cockroaches, Periplaneta americana (see FIG. 1), are taken from our laboratory colonies, which are maintained under standard conditions (29° C., photoperiod of 12 h light/12 h dark). Animals are immobilized dorsal-side up on a dissection dish. The dorsal cuticle, gut and some dorso-longitudinal muscles are removed to allow access to the ventral nerve cord. The abdominal nerve cord and its terminal abdominal ganglion (TAG), carefully dissected under a binocular microscope, are placed in normal saline. Animal care and handling procedures are in accordance with French institutional and national health guidelines. […]
Electrical activity and neonicotinoïd-induced inward currents are recorded using the patch clamp technique in the whole-cell recording configuration under current-clamp and voltage-clamp mode, respectively. […] Signals are recorded with an Axopatch 200A amplifier. […]

[3] = test system: cockroach Dorsal Unpaired Median (DUM) neurons; experiment: Whole-cell patch-clamp, voltage-clamp: neonicotinoïd-induced inward currents; settings: for inward current amplitude after pretreatment with low concentration of IR3535 (conclusion): DUM neurons pretreated with low concentration of IR3535; for induced inward current, insecticide alone (conclusion): act like agonists
Method: as §1
Adult male cockroaches, Periplaneta americana (see FIG. 1), are taken from our laboratory colonies, which are maintained under standard conditions (29° C., photoperiod of 12 h light/12 h dark). Animals are immobilized dorsal-side up on a dissection dish. The dorsal cuticle, gut and some dorso-longitudinal muscles are removed to allow access to the ventral nerve cord. The abdominal nerve cord and its terminal abdominal ganglion (TAG), carefully dissected under a binocular microscope, are placed in normal saline. Animal care and handling procedures are in accordance with French institutional and national health guidelines.
The ventral nerve cord and its terminal abdominal ganglion (TAG) are carefully dissected under a binocular microscope and placed in normal cockroach saline containing (in mM) 200 NaCl, 3.1 KCl, 5 CaCl2, 4 MgCl2, 50 sucrose, and 10 […] (HEPES); pH was adjusted to 7.4 with NaOH. Isolation of adult DUM neuron cell bodies are performed under sterile conditions using enzymatic digestion and mechanical dissociation of the median parts of the TAG as previously described in Lapied et al. (Ionic species involved in the electrical activity of single adult aminergic neurones isolated from sixth abdominal ganglion of cockroach Periplaneta americana J Exp Biol 144:535-49, 1989). The isolated neuron cell bodies are used for recordings 24 h after dissociation.
Electrical activity and neonicotinoïd-induced inward currents are recorded using the patch clamp technique in the whole-cell recording configuration under current-clamp and voltage-clamp mode, respectively. Patch-clamp electrodes are pulled from borosilicate glass capillary tubes (GC150T-10) using a P-97 model puller. Patch pipettes have resistances ranging from 1 to 1.2 MΩ when filled with internal pipette solution. The liquid junction potential between extracellular and intracellular solutions is always corrected before the formation of a giga Ohm seal (>3 GΩ). Signals are recorded with an Axopatch 200A amplifier. […] Under voltage-clamp conditions, DUM neuron somata are voltage-clamped at a steady state holding potential of −50 mV to measure the effects of thiamethoxam or thiacloprid applied alone and after pretreatment with IR3535® (10^−8 M). Experiments are carried out at room temperature.

[4] = thiamethoxam 10^-6 M, pretreated with IR3535 10^-8 M

Compound: CCN(CC)C(=O)c1cccc(C)c1 [DEET, N,N-diethyl-3-methylbenzamide]
- ratio of emitted fluorescence (340 nm/380 nm), maximum value ([1]; DEET at 10^-7 M (maximum)): 0.7
- ratio of emitted fluorescence (340 nm/380 nm) ([1]; DEET between 3.10^-8 M and 3.10^-7 M): above 0.6
- effect on intracellular calcium concentration, low concentration range ([1]; DEET from 10^-9 M to 10^-7 M): elevation of the intracellular calcium concentration
- effect on intracellular calcium concentration, higher concentrations ([1]; DEET higher than 10^-7 M): important decrease of the intracellular calcium concentration
- concentration giving the maximum elevation of intracellular calcium concentration ([1]; DEET low concentration range): 10^−7 M

Compound: CCCCN(CCC(=O)OCC)C(C)=O [IR3535®, 3-[N-Butyl-N-acetyl]-aminopropionic acid, ethyl ester]
- lower concentration which produces a significant elevation of intracellular calcium concentration ([1]; DUM neurons): 10^−8 M
- origin of the intracellular calcium concentration rise ([1]; IR3535 at 10^-8 M): extracellular calcium through plasma membrane voltage-dependent calcium channels via M1/M3 mAChR sub-type modulation
- effect on intracellular calcium concentration, zone I ([1]; IR3535 between 3.10^-9 M and 3.10^-8 M, bath application): transient increase of intracellular calcium concentration
- effect on intracellular calcium concentration, zone II ([1]; IR3535 from 10^-7 M to 3.10^-6 M): additional elevation of intracellular calcium concentration
- origin of the intracellular calcium concentration rise ([1]; higher concentrations of IR3535 (10^-5 M)): both extracellular calcium and calcium released from internal stores
- concentration giving the maximum of the zone I intracellular calcium increase ([1]; zone I (3.10^-9 M to 3.10^-8 M)): 10^−8 M
- concentration giving the maximum effect on intracellular calcium, zone III ([1]; zone III, very high concentration): 3.10^−5 M
- effect on membrane potential [2]: significant membrane depolarization
- effect on spontaneous action potential discharge frequency [2]: increase of the spontaneous action potential discharge frequency

Compound: N#C/N=C1\SCCN1Cc1ccc(Cl)nc1 [thiacloprid]
- concentration giving the maximum increase of inward current amplitude after IR3535 pretreatment ([3]; DUM neuron pretreated with IR3535 10^-8 M): 10^−6 M
- inward current amplitude after pretreatment with low concentration of IR3535 (conclusion) [3]: more important
- induced inward current, insecticide alone (conclusion) ([3]; alone): inward current with a small amplitude
- concentration giving the maximum effect on inward current amplitude, applied alone ([3]; alone, holding potential -50 mV): 10^−3 M
- effect on inward current amplitude, applied alone ([3]; bath application alone, holding potential -50 mV): dose-dependent increase of the inward current amplitude
- effect on inward current amplitude at higher concentration after IR3535 pretreatment ([3]; thiacloprid 10^-5 M, pretreated with IR3535 10^-8 M): important decrease of the current amplitude

Compound: CN1COCN(Cc2cnc(Cl)s2)/C1=N\[N+](=O)[O-] [thiamethoxam]
- induced inward current, applied alone ([3]; 10^-6 M alone, holding potential -50 mV, n=3-4): inward current with small amplitudes
- inward current amplitude after pretreatment with low concentration of IR3535 (conclusion) [3]: more important
- induced inward current, insecticide alone (conclusion) ([3]; alone): inward current with a small amplitude
- effect of IR3535 pretreatment on induced inward current amplitude [3, 4]: important increase of the thiamethoxam-induced inward current amplitude
- mean current amplitude after IR3535 pretreatment relative to applied alone [3, 4]: about 6 fold
